Data on nine compounds can be found in patent US20240158446A1, “CYCLIC COMPOUND HAVING SELECTIVE INHIBITORY ACTION ON KRAS OVER HRAS AND NRAS” (CHUGAI SEIYAKU KABUSHIKI KAISHA, priority 2021, published 2024).

The target of assay [1] is GDP-bound NRAS wild-type protein (Homo sapiens, UniProt P01111). Kind of assay: Binding to NRAS by surface plasmon resonance (SPR), Single Cycle Kinetics. The settings on record: for NRAS/KRAS (ratio of KD value for NRAS to KD value for KRAS): GDP-bound NRAS wild-type protein vs GDP-bound KRAS wild-type protein; for NRAS/KRAS (ratio of KD value with respect to GDP-bound NRAS wild-type protein to KD value with respect to KRAS): SPR KD ratio NRAS/KRAS, class symbols.
Sequence of GDP-bound NRAS wild-type protein (P01111 whole entry): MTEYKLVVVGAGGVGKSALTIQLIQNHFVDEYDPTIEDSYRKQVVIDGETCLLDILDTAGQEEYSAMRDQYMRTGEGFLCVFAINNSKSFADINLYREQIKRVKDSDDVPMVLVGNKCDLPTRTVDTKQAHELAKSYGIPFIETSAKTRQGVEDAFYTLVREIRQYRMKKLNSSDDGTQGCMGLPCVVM

In assay [2] the target is GDP-bound KRAS wild-type protein (Homo sapiens, UniProt P01116). Kind of assay: Binding to KRAS by surface plasmon resonance (SPR), Single Cycle Kinetics. To be noted: GDP-bound KRAS wild-type protein, read-out: KRAS KD. For orientation: SPR reads the build-up and loss of mass on a sensor chip optically.
Sequence of GDP-bound KRAS wild-type protein (P01116 whole entry): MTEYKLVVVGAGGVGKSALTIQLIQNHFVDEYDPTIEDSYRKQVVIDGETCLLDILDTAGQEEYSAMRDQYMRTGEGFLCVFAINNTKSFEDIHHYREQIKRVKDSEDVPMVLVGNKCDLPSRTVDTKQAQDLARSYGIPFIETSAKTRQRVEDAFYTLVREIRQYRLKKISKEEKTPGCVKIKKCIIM
Assay [3] has as its target GDP-bound HRAS wild-type protein (Homo sapiens, UniProt P01112). Kind of assay: Binding to HRAS by surface plasmon resonance (SPR), Single Cycle Kinetics. The settings on record: for HRAS/KRAS (ratio of KD value for HRAS to KD value for KRAS): GDP-bound HRAS wild-type protein vs GDP-bound KRAS wild-type protein; for HRAS/KRAS (ratio of KD value with respect to GDP-bound HRAS wild-type protein to KD value with respect to KRAS): SPR KD ratio HRAS/KRAS, class symbols.

Assay [4] concerns human lung cancer strain NCI-H441.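 Also: cell proliferation inhibition after four days measured by CellTiter-Glo.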
The mark [5] stands for this setting: SPR, Single Cycle Kinetics, 1:1 binding model.
Setting [6] is: SPR Single Cycle Kinetics, 1:1 binding model.

Molecules are shown by their SMILES. Where two headings read alike, the source gives them in different places. Where a SMILES comes first, the peptide text is derived from it. Bridges are numbered along the chain shown (N, C = ends). [ ]: non-standard residue; d: D form. The star is where a group is joined. hPhe(3-Cl-4-CF3) = N[C@@H](CCc1ccc(C(F)(F)F)c(Cl)c1)C(=O)O; NPrPhe(4-CF3) = CCCN[C@@H](Cc1ccc(C(F)(F)F)cc1)C(=O)O; NMeGly(cPent) = CN[C@H](C(=O)O)C1CCCC1; NMeD = CN[C@@H](CC(=O)O)C(=O)O; NMeL = CN[C@@H](CC(C)C)C(=O)O; Pyrrolidide = C1CCN(*)C1; Ac5c = NC1(C(=O)O)CCCC1; Sar = CNCC(=O)O

Sequence of GDP-bound HRAS wild-type protein (P01112 whole entry): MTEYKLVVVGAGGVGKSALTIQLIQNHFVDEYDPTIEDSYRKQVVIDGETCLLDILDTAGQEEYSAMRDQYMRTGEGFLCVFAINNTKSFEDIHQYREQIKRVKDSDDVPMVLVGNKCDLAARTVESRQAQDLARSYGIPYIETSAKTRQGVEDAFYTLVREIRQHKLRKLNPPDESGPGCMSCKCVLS

As for `CC[C@H](C)[C@@H]1NC(=O)[C@H](CC)N(C)C(=O)C[C@@H](C(=O)N(C)C)N(C)C(=O)[C@H](C2CCCC2)N(C)C(=O)C2(CCC2)NC(=O)[C@@H]2CC(F)(F)CN2C(=O)[C@H](CCc2cc(F)c(C(F)(F)F)c(F)c2)NC(=O)CN(C)C(=O)[C@H](CC2CCC(F)(F)CC2)N2CC/C=C\C[C@@H](C2=O)N(C)C(=O)CN(C)C1=O` [PP1448, (2S,8S,14S,20S,23S,27S,30S,36S,38Z)-20-cyclopentyl-2-[(4,4-difluorocyclohexyl)methyl]-8-[2-[3,5-difluoro-4-(trifluoromethyl)phenyl]ethyl]-27-ethyl-12,12-difluoro-N,N,4,19,22,26,32,35-octamethyl-30-[(1S)-1-methylpropyl]-3,6,9,15,18,21,25,28,31,34,42-undecaoxo-spiro[1,4,7,10,16,19,22,26,29,32,35-undecazatricyclo[34.5.1.0^10,14]dotetracont-38-ene-17,1′-cyclobutane]-23-carboxamide], the “NRAS/KRAS (ratio of KD value for NRAS to KD value for KRAS)” value in assay [1] (SPR, KD ratio class) was “A (a compound having 10 or more and less than 20 is denoted as A)”. Further, the Kd in assay [2] (setting [5]) was 0.059 nM. Also, the “HRAS/KRAS (ratio of KD value for HRAS to KD value for KRAS)” value in assay [3] (SPR, KD ratio class) is “A (a compound having 10 or more and less than 20 is denoted as A)”. For the same compound, in assay [4], the IC50 is 8.3 nM.

Consider `CCC[C@H]1C(=O)N[C@@H]([C@@H](C)CC)C(=O)N(C2CC2)CC(=O)N(C)[C@H]2C/C=C\CCN(C2=O)[C@@H](Cc2ccc(C(F)(F)F)cc2)C(=O)N(C)CC(=O)N[C@@H](CCc2ccc(C(F)(F)F)c(OC)c2)C(=O)N2C[C@H](OCC)C[C@H]2C(=O)NC2(CC(C)(C)C2)C(=O)N(C)[C@@H](CC(C)(C)C)C(=O)N(C)[C@H](C(=O)N(C)C)CC(=O)N1C` [PP2746], for which the “NRAS/KRAS (ratio of KD value with respect to GDP-bound NRAS wild-type protein to KD value with respect to KRAS)” value in assay [1] is “A (a compound having 10 or more and less than 20 is denoted as A)”. Further, the Kd in assay [2] (setting [6]) was 0.28 nM. In addition, the “HRAS/KRAS (ratio of KD value with respect to GDP-bound HRAS wild-type protein to KD value with respect to KRAS)” value in assay [3] is “A (a compound having 10 or more and less than 20 is denoted as A)”. This compound also returned an IC50 in assay [4] of 10.2 nM.

`CC[C@H](C)[C@@H]1NC(=O)[C@H](CC2CC2)N(C)C(=O)C[C@@H](C(=O)N(C)C)N(C)C(=O)[C@H](C2CCCC2)N(C)C(=O)C2(CCCC2)NC(=O)[C@@H]2CCCN2C(=O)[C@H](CCc2ccc(C(F)(F)F)c(Cl)c2)NC(=O)CN(C)C(=O)[C@H](Cc2ccc(C(F)(F)F)cc2)N2C[C@H](C)CC[C@@H](C2=O)N(C)C(=O)CN(C)C1=O` [PP1346]: the “NRAS/KRAS (ratio of KD value for NRAS to KD value for KRAS)” value in assay [1] (SPR, KD ratio class) is “B (a compound having 3 or more and less than 10 is denoted as B)”. The Kd in assay [2] (setting [5]) worked out at 0.084 nM. For the same compound, the “HRAS/KRAS (ratio of KD value for HRAS to KD value for KRAS)” value in assay [3] (SPR, KD ratio class) was “B (a compound having 3 or more and less than 10 is denoted as B)”. In assay [4], this compound had an IC50 of 7.2 nM.

Regarding `CCO[C@@H]1C[C@H]2C(=O)N(C)C3(CC(C)(C)C3)C(=O)N(C)[C@@H](C3CCCC3)C(=O)N(C)[C@H](C(=O)N(C)C)CC(=O)N(C)[C@H]3CCCCCCc4ccc(cc4)C[C@@H](C(=O)N(C)CC(=O)N[C@@H](CCc4ccc(C(F)(F)F)c(OC)c4)C(=O)N2C1)N1CC/C=C\C[C@@H](C1=O)N(C)C(=O)CN(C)C(=O)[C@H]([C@@H](C)CC)NC3=O` [PP3090], the “NRAS/KRAS (ratio of KD value for NRAS to KD value for KRAS)” value in assay [1] (SPR) was “A (a compound having 10 or more and less than 20 is denoted as A)”. Besides, the “ratio of the KD value with respect to GDP-bound NRAS wild-type protein to the KD value with respect to KRAS” value in assay [1] (SPR, KD(NRAS)/KD(KRAS)) is “A (a compound having 10 or more and less than 20 is denoted as A)”. The Kd in assay [2] (SPR, Single Cycle Kinetics) amounted to 0.033 nM. Besides, the “HRAS/KRAS (ratio of KD value for HRAS to KD value for KRAS)” value in assay [3] (SPR) is “B (a compound having 3 or more and less than 10 is denoted as B)”. In assay [3] (SPR, KD(HRAS)/KD(KRAS)), the “ratio of the KD value with respect to GDP-bound HRAS wild-type protein to the KD value with respect to KRAS” value is “B (a compound having 3 or more and less than 10 is denoted as B)”. Moreover, the IC50 in assay [4] (read-out: NCI-H441 cell proliferation inhibitory activity, 50% proliferation inhibitory concentration (IC50 value), NCI-H441, four days, CellTiter-Glo) was 1.3 nM.

Turning to `CC[C@H](C)[C@@H]1NC(=O)[C@H](CC)N(C)C(=O)C[C@@H](C(=O)N(C)C)N(C)C(=O)[C@H](C2CCCC2)N(C)C(=O)C2(CCC2)NC(=O)[C@H](C)NC(=O)[C@H](CCc2cc(F)c(C(F)(F)F)c(F)c2)NC(=O)CN(C)C(=O)[C@H](Cc2ccc(C(F)(F)F)cc2)N2CC/C=C\C[C@@H](C2=O)N(C)C(=O)CN(C)C1=O` [PP1140, (2S,8S,11S,17S,20S,24S,27S,33S,35Z)-17-cyclopentyl-8-[2-[3,5-difluoro-4-(trifluoromethyl)phenyl]ethyl]-24-ethyl-N,N,4,11,16,19,23,29,32-nonamethyl-27-[(1S)-1-methylpropyl]-3,6,9,12,15,18,22,25,28,31,39-undecaoxo-2-[[4-(trifluoromethyl)phenyl]methyl]spiro[1,4,7,10,13,16,19,23,26,29,32-undecazabicyclo[31.5.1]nonatriacont-35-ene-14,1′-cyclobutane]-20-carboxamide], in assay [1] (SPR), the “NRAS/KRAS (ratio of KD value for NRAS to KD value for KRAS)” value was “A (a compound having 10 or more and less than 20 is denoted as A)”. In addition, in assay [2] (SPR, Single Cycle Kinetics), the Kd worked out at 0.15 nM. The “HRAS/KRAS (ratio of KD value for HRAS to KD value for KRAS)” value in assay [3] (SPR) is “A (a compound having 10 or more and less than 20 is denoted as A)”. Besides, the IC50 in assay [4] amounted to 1780 nM.

For `CCCN1C(=O)CN(C)C(=O)CN(C)C(=O)[C@H]([C@@H](C)CC)NC(=O)[C@H](CC(C)C)N(C)C(=O)C[C@@H](C(=O)N2CCCC2)N(C)C(=O)[C@H](C2CCCC2)N(C)C(=O)C2(CCCC2)NC(=O)[C@@H]2CCCN2C(=O)[C@H](CCc2ccc(C(F)(F)F)c(Cl)c2)NC(=O)CN(C)C(=O)[C@@H]1Cc1ccc(C(F)(F)F)cc1` [PP0170] ([NMeL]I[Sar][Sar][NPrPhe(4-CF3)][Sar][hPhe(3-Cl-4-CF3)]P[Ac5c][NMeGly(cPent)][NMeD]-Pyrrolidide; lactam N-11), in assay [1] (SPR), the “NRAS/KRAS (ratio of KD value for NRAS to KD value for KRAS)” value is “B (a compound having 3 or more and less than 10 is denoted as B)”. In assay [2] (setting [6]), the Kd came to 0.12 nM. Besides, the “HRAS/KRAS (ratio of KD value for HRAS to KD value for KRAS)” value in assay [3] (SPR) was “B (a compound having 3 or more and less than 10 is denoted as B)”. The same compound displayed an IC50 in assay [4] of 5.2 nM.

As to `CCO[C@@H]1C[C@H]2C(=O)NC3(CCC3)C(=O)N(C)[C@@H](C3CCCC3)C(=O)N(C)[C@H](C(=O)N(C)C)CC(=O)N(C)[C@@H](Cc3ccc(F)c(F)c3)C(=O)N[C@@H]([C@@H](C)CC)C(=O)N(C)CC(=O)N(C)[C@H]3CCCCCN(C3=O)[C@@H](Cc3ccc(C(F)(F)F)cc3)C(=O)N(C)CC(=O)N[C@@H](CCc3cc(F)c(C(F)(F)F)c(F)c3)C(=O)N2C1` [PP0937], the “NRAS/KRAS (ratio of KD value for NRAS to KD value for KRAS)” value in assay [1] (SPR) was “B (a compound having 3 or more and less than 10 is denoted as B)”. Besides, the Kd in assay [2] (SPR, Single Cycle Kinetics) is 1 nM. In addition, the “HRAS/KRAS (ratio of KD value for HRAS to KD value for KRAS)” value in assay [3] (SPR) is “B (a compound having 3 or more and less than 10 is denoted as B)”. The compound also returned an IC50 in assay [4] of 39 nM.

With `CCC[C@H]1C(=O)N[C@@H](CC(C)C)C(=O)N(CCOC)CC(=O)N(C)[C@H]2C/C=C\CCN(C2=O)[C@@H](Cc2ccc(C)cc2)C(=O)N(C)CC(=O)N[C@@H](CCc2cc(F)c(C(F)(F)F)c(F)c2)C(=O)N2C[C@H](OCC)C[C@H]2C(=O)NC2(CCC2)C(=O)N(C)[C@@H](C2CCCC2)C(=O)N(C)[C@H](C(=O)N(C)C)CC(=O)N1C` [PP2541], the “NRAS/KRAS (ratio of KD value with respect to GDP-bound NRAS wild-type protein to KD value with respect to KRAS)” value in assay [1] was “A (a compound having 10 or more and less than 20 is denoted as A)”. In addition, the Kd in assay [2] (setting [6]) is 4.9 nM. For the same compound, the “HRAS/KRAS (ratio of KD value with respect to GDP-bound HRAS wild-type protein to KD value with respect to KRAS)” value in assay [3] is “B (a compound having 3 or more and less than 10 is denoted as B)”. For the same compound, the IC50 in assay [4] was determined as 374 nM.

With `CC[C@H](C)[C@@H]1NC(=O)[C@H](CC)N(C)C(=O)C[C@@H](C(=O)N(C)C)N(C)C(=O)[C@H](C2CCCC2)N(C)C(=O)C2(CCC2)NC(=O)[C@@H]2CCCN2C(=O)[C@H](CCc2cc(F)c(C(F)(F)F)c(F)c2)NC(=O)CN(C)C(=O)[C@H](Cc2ccc(C(F)(F)F)cc2)N2CC/C=C\C[C@@H](C2=O)N(C)C(=O)CN(C)C1=O` [PP1135, (2S,8S,14S,20S,23S,27S,30S,36S,38Z)-20-cyclopentyl-8-[2-[3,5-difluoro-4-(trifluoromethyl)phenyl]ethyl]-27-ethyl-N,N,4,19,22,26,32,35-octamethyl-30-[(1S)-1-methylpropyl]-3,6,9,15,18,21,25,28,31,34,42-undecaoxo-2-[[4-(trifluoromethyl)phenyl]methyl]spiro[1,4,7,10,16,19,22,26,29,32,35-undecazatricyclo[34.5.1.0^10,14]dotetracont-38-ene-17,1′-cyclobutane]-23-carboxamide], the “NRAS/KRAS (ratio of KD value for NRAS to KD value for KRAS)” value in assay [1] (SPR) is “A (a compound having 10 or more and less than 20 is denoted as A)”. In addition, the Kd in assay [2] (SPR, Single Cycle Kinetics) came to 0.094 nM. Besides, in assay [3] (SPR), the “HRAS/KRAS (ratio of KD value for HRAS to KD value for KRAS)” value was “A (a compound having 10 or more and less than 20 is denoted as A)”. In assay [4], this compound yielded an IC50 of 43.9 nM.

Broadly, the Kd is the equilibrium constant for the complex coming apart.
